Reference: the supplement of paper PMC10307832

How the values were obtained:
Assay in all cases: relative viability (nuclei count vs DMSO), 5 days (fraction); higher = more cells survive
Irinotecan + Navitoclax = compound: CCc1c2c(nc3ccc(OC(=O)N4CCC(N5CCCCC5)CC4)cc13)-c1cc3c(c(=O)n1C2)COC(=O)[C@]3(O)CC [Irinotecan] + CC1(C)CCC(c2ccc(Cl)cc2)=C(CN2CCN(c3ccc(C(=O)NS(=O)(=O)c4ccc(N[C@H](CCN5CCOCC5)CSc5ccccc5)c(S(=O)(=O)C(F)(F)F)c4)cc3)CC2)C1 [Navitoclax] (partner 0.5 µM)
In short: (§1)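 Medians of duplicate plates are given as relative viability. That measure is the nuclei count in treated wells divided by the count in vehicle wells. Counts were taken on 4× images of lung cancer cell lines in 1536-well plates, 5 days after pin-tool dosing the day after seeding with one drug alone or a fixed anchor-drug dose plus five library-drug doses (not always all listed) in √10 steps.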

RU-SKI 43 + Foretinib = compound: CC[C@@H](C)CNCC(=O)N1CCC2=C([C@@H]1COC3=CC=CC(=C3)C)C=CS2 [RU-SKI 43] + COc1cc2c(Oc3ccc(NC(=O)C4(C(=O)Nc5ccc(F)cc5)CC4)cc3F)ccnc2cc1OCCCN1CCOCC1 [Foretinib] (partner 0.25 µM)
In short: as §1

MK-8033 + Trametinib = compound: Cn1cc(-c2cnc3ccc4ccc(CS(=O)(=O)NCc5ccccn5)cc4c(=O)c3c2)cn1 [MK-8033] + CC(=O)Nc1cccc(-n2c(=O)n(C3CC3)c(=O)c3c(Nc4ccc(I)cc4F)n(C)c(=O)c(C)c32)c1 [Trametinib] (partner 0.02 µM)
In short: as §1

Irinotecan + Alpelisib = compound: CCc1c2c(nc3ccc(OC(=O)N4CCC(N5CCCCC5)CC4)cc13)-c1cc3c(c(=O)n1C2)COC(=O)[C@]3(O)CC [Irinotecan] + Cc1nc(NC(=O)N2CCC[C@H]2C(N)=O)sc1-c1ccnc(C(C)(C)C(F)(F)F)c1 [Alpelisib] (partner 2 µM)
In short: as §1

Row | Cell Line | relative viability (Irinotecan + Navitoclax; first compound 2 µM) | relative viability (Irinotecan + Navitoclax; first compound 6.325 µM) | relative viability (Irinotecan + Navitoclax; first compound 20 µM) | relative viability (RU-SKI 43 + Foretinib; first compound 0.1 µM) | relative viability (RU-SKI 43 + Foretinib; first compound 0.3162 µM) | relative viability (RU-SKI 43 + Foretinib; first compound 1 µM) | relative viability (RU-SKI 43 + Foretinib; first compound 3.162 µM) | relative viability (RU-SKI 43 + Foretinib; first compound 10 µM) | relative viability (MK-8033 + Trametinib; first compound 0.02 µM) | relative viability (MK-8033 + Trametinib; first compound 0.2 µM) | relative viability (MK-8033 + Trametinib; first compound 0.6325 µM) | relative viability (MK-8033 + Trametinib; first compound 2 µM) | relative viability (Irinotecan + Alpelisib; first compound 2 µM) | relative viability (Irinotecan + Alpelisib; first compound 6.325 µM) | relative viability (Irinotecan + Alpelisib; first compound 20 µM) | relative viability (Irinotecan + Navitoclax; first compound 0.6325 µM) | relative viability (MK-8033 + Trametinib; first compound 0.06325 µM) | relative viability (Irinotecan + Alpelisib; first compound 0.6325 µM)
1 | NCI-H1793 | 0.447 | 0.347 | 0.664 | 0.602 | 0.68 | 0.738 | 0.762 | 0.502 | 0.425 | 0.362 | 0.447 | 0.361 | 0.668 | 0.383 | 0.259 |  |  | 
2 | NCI-H1915 | 0.18 | 0.151 | 0.115 | 1.19 | 1.23 | 1.17 | 1.15 | 1.14 | 0.276 | 0.274 | 0.289 | 0.306 | 0.217 | 0.164 | 0.155 | 0.318 | 0.319 | 0.3
3 | NCI-H1944 | 0.26 | 0.195 | 0.205 | 0.812 | 0.878 | 0.918 | 1.01 | 0.819 | 0.407 | 0.395 | 0.391 | 0.398 | 0.271 | 0.168 | 0.167 | 0.653 | 0.418 | 0.58
4 | NCI-H1975 | 1.11 | 0.411 | 0.167 | 1.09 | 1.28 | 1.01 | 0.922 | 0.939 | 0.357 | 0.279 | 0.239 | 0.405 | 0.68 | 0.324 | 0.195 | 1.06 | 0.301 | 0.654
5 | NCI-H1993 | 0.834 | 0.588 | 0.812 | 0.747 | 0.889 | 0.786 | 0.801 | 0.729 | 0.55 | 0.427 | 0.469 | 0.456 | 0.643 | 0.63 | 0.68 | 0.97 | 0.506 | 0.617
6 | NCI-H2009 | 0.58 | 0.19 | 0.148 | 1.21 | 1.42 | 1.31 | 1.24 | 1.17 | 0.282 | 0.215 | 0.291 | 0.238 | 0.591 | 0.26 | 0.135 | 0.802 | 0.255 | 0.838
7 | NCI-H2023 | 0.812 | 0.277 | 0.103 | 0.954 | 1.1 | 0.82 | 0.828 | 0.558 | 0.552 | 0.453 | 0.475 | 0.366 | 0.468 | 0.202 | 0.0912 | 1 | 0.511 | 0.607
8 | NCI-H2085 | 0.862 | 0.493 | 0.507 | 0.928 | 0.772 | 0.91 | 0.93 | 0.934 | 0.542 | 0.525 | 0.554 | 0.574 | 0.75 | 0.458 | 0.482 | 1.03 | 0.546 | 0.888
9 | NCI-H2087 | 0.26 | 0.184 | 0.218 | 1.07 | 1.25 | 1.24 | 1.28 | 0.961 | 0.213 | 0.187 | 0.214 | 0.254 | 0.22 | 0.215 | 0.211 | 0.468 | 0.147 | 0.437
10 | NCI-H2126 | 0.421 | 0.319 | 0.308 | 1.09 | 1.05 | 1.17 | 1.28 | 1.33 | 0.542 | 0.525 | 0.585 | 0.569 | 0.384 | 0.289 | 0.312 |  | 0.554 | 
11 | NCI-H2170 | 0.348 | 0.308 | 0.192 | 0.994 | 1.13 | 1.07 | 1.09 | 0.975 | 0.838 | 0.844 | 0.922 | 0.824 | 0.399 | 0.3 | 0.216 | 0.52 | 0.92 | 0.929
12 | NCI-H2228 | 0.529 | 0.405 | 0.51 | 0.769 | 0.988 | 0.879 | 0.863 | 0.726 | 0.278 | 0.435 | 0.341 | 0.582 | 0.598 | 0.431 | 0.408 | 0.875 | 0.403 | 0.791
13 | NCI-H2347 | 0.477 | 0.348 | 0.277 | 1.04 | 1.04 | 1.34 | 0.842 | 1.06 | 0.326 | 0.295 | 0.287 | 0.281 | 0.763 | 0.482 | 0.464 | 0.648 | 0.344 | 0.858
14 | NCI-H2405 | 0.697 | 0.212 | 0.091 | 1.08 | 1.03 | 1.04 | 1.09 | 1.05 | 0.601 | 0.496 | 0.603 | 0.667 | 0.678 | 0.291 | 0.0889 |  | 0.619 | 
15 | NCI-H3122 | 0.235 | 0.226 | 0.209 | 0.941 | 1.05 | 1 | 0.994 | 0.972 | 0.262 | 0.21 | 0.238 | 0.3 | 0.301 | 0.244 | 0.255 | 0.723 | 0.247 | 0.824
16 | PC-3 [JPC-3] | 0.436 | 0.307 | 0.333 | 1.02 | 1.04 | 1.11 | 1.06 | 0.976 | 0.599 | 0.68 | 0.708 | 0.666 | 0.413 | 0.319 | 0.305 | 0.703 |  | 0.814
17 | PC-14 | 0.876 | 0.196 | 0.147 | 0.872 | 1.15 | 1.02 | 1.07 | 0.909 | 0.723 | 0.649 | 0.774 | 0.654 | 0.9 | 0.465 | 0.184 | 0.987 | 0.604 | 0.925
18 | RERF-LC-KJ | 1.18 | 0.52 | 0.504 | 0.849 | 0.976 | 0.812 | 0.959 | 0.913 | 0.818 | 0.812 | 0.828 | 0.812 | 0.835 | 0.501 | 0.454 | 0.936 | 0.843 | 
